Source: US20260138961A1, “MODULATORS OF MITOCHONDRIAL DNA REPLICATION” (Pretzel Therapeutics, Inc., priority 2022, published 2026)

Molecular target: T1, POLγA:G848S (Homo sapiens, UniProt P54098, G848S)
T1 sequence (P54098 1-1239 G848S): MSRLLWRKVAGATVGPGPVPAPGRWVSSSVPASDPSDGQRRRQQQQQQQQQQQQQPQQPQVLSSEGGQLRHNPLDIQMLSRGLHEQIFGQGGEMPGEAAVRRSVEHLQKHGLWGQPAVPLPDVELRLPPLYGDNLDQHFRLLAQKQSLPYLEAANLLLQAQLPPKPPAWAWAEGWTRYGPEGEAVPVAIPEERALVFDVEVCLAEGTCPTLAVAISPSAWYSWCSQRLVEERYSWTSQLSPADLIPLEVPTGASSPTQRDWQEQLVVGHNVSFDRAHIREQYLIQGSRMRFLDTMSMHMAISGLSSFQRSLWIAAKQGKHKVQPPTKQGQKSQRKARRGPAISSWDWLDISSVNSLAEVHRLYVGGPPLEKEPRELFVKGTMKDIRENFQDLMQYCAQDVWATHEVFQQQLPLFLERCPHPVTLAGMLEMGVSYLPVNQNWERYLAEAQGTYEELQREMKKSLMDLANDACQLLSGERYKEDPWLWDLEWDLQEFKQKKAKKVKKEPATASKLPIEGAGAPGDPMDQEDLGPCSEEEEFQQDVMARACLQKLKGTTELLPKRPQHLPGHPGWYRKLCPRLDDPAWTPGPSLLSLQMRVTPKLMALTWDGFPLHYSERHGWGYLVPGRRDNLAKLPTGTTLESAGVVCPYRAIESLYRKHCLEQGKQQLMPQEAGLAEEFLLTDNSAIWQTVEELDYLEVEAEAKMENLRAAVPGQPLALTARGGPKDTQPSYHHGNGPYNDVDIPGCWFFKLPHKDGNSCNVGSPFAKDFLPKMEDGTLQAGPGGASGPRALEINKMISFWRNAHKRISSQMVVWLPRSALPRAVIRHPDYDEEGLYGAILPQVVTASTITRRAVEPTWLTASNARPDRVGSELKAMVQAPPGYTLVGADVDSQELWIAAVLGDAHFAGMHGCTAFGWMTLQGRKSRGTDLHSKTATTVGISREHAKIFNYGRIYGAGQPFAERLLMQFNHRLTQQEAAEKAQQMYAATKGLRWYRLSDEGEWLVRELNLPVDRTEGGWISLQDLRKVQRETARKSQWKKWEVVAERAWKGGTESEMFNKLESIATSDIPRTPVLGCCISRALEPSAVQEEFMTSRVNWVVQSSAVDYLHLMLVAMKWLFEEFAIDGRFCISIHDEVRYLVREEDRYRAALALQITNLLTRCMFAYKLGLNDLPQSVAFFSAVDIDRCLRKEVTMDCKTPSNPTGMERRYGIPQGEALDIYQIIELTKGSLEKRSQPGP
T1 sequence (Q9UHN1 1-485 partner): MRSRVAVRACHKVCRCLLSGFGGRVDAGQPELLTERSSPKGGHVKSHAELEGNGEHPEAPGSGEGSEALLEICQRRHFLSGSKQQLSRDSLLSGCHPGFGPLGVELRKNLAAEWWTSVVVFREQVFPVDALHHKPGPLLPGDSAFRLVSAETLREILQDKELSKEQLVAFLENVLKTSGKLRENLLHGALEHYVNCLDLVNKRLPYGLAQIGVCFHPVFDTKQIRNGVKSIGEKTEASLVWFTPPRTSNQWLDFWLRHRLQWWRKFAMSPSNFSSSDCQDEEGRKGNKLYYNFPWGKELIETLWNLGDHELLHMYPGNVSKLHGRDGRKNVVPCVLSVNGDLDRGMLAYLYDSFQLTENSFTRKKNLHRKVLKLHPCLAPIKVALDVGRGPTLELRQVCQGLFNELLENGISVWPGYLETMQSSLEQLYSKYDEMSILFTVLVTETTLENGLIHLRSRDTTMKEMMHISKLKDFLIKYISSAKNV
Assay: DNA polymerization assay, POLγA:G848S mutant
Assay type: biochemical
Conditions: stimulation of polymerase activity, primed M13mp18 ssDNA, 37° C. 2 hours; read-out: G848S AC50

`Cc1cc(S(=O)(=O)Nc2cccc(C(=O)N(C)C(C)CO)c2)c(C)cc1Cl` (single isomer, unassigned) [Example 15, 3-((4-chloro-2,5-dimethylphenyl)sulfonamido)-N-(1-hydroxypropan-2-yl)-N-methylbenzamide] and `Cc1cc(S(=O)(=O)Nc2cccc(C(=O)N[C@H](C)CO)c2)c(C)cc1Cl` [Example 51, (R)-3-((4-chloro-2,5-dimethylphenyl)sulfonamido)-N-(1-hydroxypropan-2-yl)benzamide] are within 1.5-fold of each other in AC50: 30 µM for the first, 44 µM for the second.

`Cc1csc(-c2cccc(NS(=O)(=O)c3cc(C)c(Cl)cc3C)c2)n1` [Example 20, 4-chloro-2,5-dimethyl-N-(3-(4-methylthiazol-2-yl)phenyl)benzenesulfonamide] and `Cc1cnc(-c2cccc(NS(=O)(=O)c3cc(C)c(Cl)cc3C)c2)s1` [Example 21, 4-chloro-2,5-dimethyl-N-(3-(5-methylthiazol-2-yl)phenyl)benzenesulfonamide] are the same in AC50: 2 µM for the first, 2 µM for the second.

`Cc1cc(S(=O)(=O)N(C)c2cccc(-c3nccs3)c2)c(C)cc1Cl` [Example 22, 4-chloro-N,2,5-trimethyl-N-(3-(thiazol-2-yl)phenyl)benzenesulfonamide] and `Cc1cc2c(NS(=O)(=O)c3cc(C)c(Cl)cc3C)cccc2[nH]1` [Example 37, 4-chloro-2,5-dimethyl-N-(2-methyl-1H-indol-4-yl)benzenesulfonamide] cannot be ordered by AC50: over 100 µM for the first, over 100 µM for the second.

Compared with `Cc1ccccc1S(=O)(=O)Nc1cccc(C(=O)N2CCOC[C@@H]2C)c1` [Example 23, (S)-2-methyl-N-(3-(3-methylmorpholine-4-carbonyl)phenyl)benzenesulfonamide], `Cc1ccc(C)c(S(=O)(=O)Nc2cccc(C(=O)N3CCOCC3)c2)c1` [Example 29, 2,5-dimethyl-N-(3-(morpholine-4-carbonyl)phenyl)benzenesulfonamide] is lower in AC50: over 100 µM for the first, 33 µM for the second.

`Cc1ccc(C)c(S(=O)(=O)Nc2cccc(C(=O)N3CCSCC3)c2)c1` [Example 24, 2,5-dimethyl-N-(3-(thiomorpholine-4-carbonyl)phenyl)benzenesulfonamide] and `Cc1ccc(C)c(S(=O)(=O)Nc2cccc(C(=O)N3CCN(C)CC3)c2)c1` [Example 31, 2,5-dimethyl-N-(3-(4-methylpiperazine-1-carbonyl)phenyl)benzenesulfonamide] cannot be ordered by AC50: over 100 µM for the first, over 100 µM for the second.

`Cc1ccc(C)c(S(=O)(=O)Nc2cccc(C(=O)N(C)C)c2)c1` [Example 25, 3-((2,5-dimethylphenyl)sulfonamido)-N,N-dimethylbenzamide] and `Cc1ccc(C)c(S(=O)(=O)Nc2cccc(C(N)=O)c2)c1` [Example 27, 3-((2,5-dimethylphenyl)sulfonamido)benzamide] cannot be ordered by AC50: over 100 µM for the first, over 100 µM for the second.

Compared with `Cc1ccc(C)c(S(=O)(=O)Nc2cccc(C(=O)N(C)Cc3ccccc3)c2)c1` [Example 26, N-benzyl-3-((2,5-dimethylphenyl)sulfonamido)-N-methylbenzamide], `Cc1ccc(C)c(S(=O)(=O)Nc2cccc(C(=O)NCc3ccccc3)c2)c1` [Example 28, N-benzyl-3-((2,5-dimethylphenyl)sulfonamido)benzamide] is higher in AC50: 50 µM for the first, over 100 µM for the second.

First: CC(=O)N1CCN(C(=O)c2cccc(NS(=O)(=O)c3cc(C)ccc3C)c2)CC1 [Example 30, N-(3-(4-acetylpiperazine-1-carbonyl)phenyl)-2,5-dimethylbenzenesulfonamide]
Second: Cc1ccc(C)c(S(=O)(=O)Nc2cccc(C(=O)N3CCCCCC3)c2)c1 [Example 32, N-(3-(azepane-1-carbonyl)phenyl)-2,5-dimethylbenzenesulfonamide]
The AC50 of the first is 1.6-fold lower: 22 µM for the first, 35 µM for the second.

Compared with `Cc1ccc(C)c(S(=O)(=O)Nc2cccc(C(=O)N(C)CC3CC3)c2)c1` [Example 33, N-(cyclopropylmethyl)-3-((2,5-dimethylphenyl)sulfonamido)-N-methylbenzamide], `Cc1ccc(C)c(S(=O)(=O)Nc2ccc(C(=O)NCC3CC3)cc2)c1` [Example 40, N-(cyclopropylmethyl)-4-((2,5-dimethylphenyl)sulfonamido)benzamide] is higher in AC50: 56 µM for the first, over 100 µM for the second.

Compared with `COc1ccc(S(=O)(=O)Nc2cccc(C(=O)N3CCSCC3C#N)c2)cc1` (centres unmarked) [Example 34, N-(3-(3-cyanothiomorpholine-4-carbonyl)phenyl)-4-methoxybenzenesulfonamide], `N#CC1CSCCN1C(=O)c1cccc(NS(=O)(=O)c2cccc(C(F)(F)F)c2)c1` (centres unmarked) [Example 35, N-(3-(3-cyanothiomorpholine-4-carbonyl)phenyl)-3-(trifluoromethyl)benzenesulfonamide] is higher in AC50: 37 µM for the first, over 100 µM for the second.

First: Cc1cc(S(=O)(=O)Nc2cccc3c2CC(=O)N3)c(C)cc1Cl [Example 36, 4-chloro-2,5-dimethyl-N-(2-oxoindolin-4-yl)benzenesulfonamide]
Second: Cc1cc(S(=O)(=O)Nc2cccc(C(N)=O)c2)c(C)cc1Cl [Example 44, 3-((4-chloro-2,5-dimethylphenyl)sulfonamido)benzamide]
The AC50 of the first is higher: over 100 µM for the first, 27 µM for the second.

`Cc1ccc(C)c(S(=O)(=O)Nc2cncc(C(=O)N3CCOCC3)c2)c1` [Example 38, 2,5-dimethyl-N-(5-(morpholine-4-carbonyl)pyridin-3-yl)benzenesulfonamide] and `Cc1cc(NS(=O)(=O)c2cc(C)ccc2C)cc(C(=O)N2CCCC[C@H]2C)c1` [Example 42, (R)-2,5-dimethyl-N-(3-methyl-5-(2-methylpiperidine-1-carbonyl)phenyl)benzenesulfonamide] cannot be ordered by AC50: over 100 µM for the first, over 100 µM for the second.

Compared with `Cc1ccc(C)c(S(=O)(=O)Nc2ccc(C(=O)N[C@@H](C)C3CC3)cc2)c1` [Example 39, (S)-N-(1-cyclopropylethyl)-4-((2,5-dimethylphenyl)sulfonamido)benzamide], `Cc1ccc(C)c(S(=O)(=O)Nc2ccc(C(=O)N3CCCC[C@H]3C)s2)c1` [Example 43, (R)-2,5-dimethyl-N-(5-(2-methylpiperidine-1-carbonyl)thiopheN-2-yl)benzenesulfonamide] is lower in AC50: over 100 µM for the first, 51 µM for the second.

Going from `Cc1ccc(C)c(S(=O)(=O)Nc2cccc(C(=O)N3CCSCC3C(N)=O)c2)c1` (centres unmarked) [Example 41, 4-(3-((2,5-dimethylphenyl)sulfonamido)benzoyl) thiomorpholine-3-carboxamide] to `Cc1cc(S(=O)(=O)Nc2cccc(C(=O)N3CCNCC3)c2)c(C)cc1Cl` [Example 46, 4-chloro-2,5-dimethyl-N-(3-(piperazine-1-carbonyl)phenyl)benzenesulfonamide], the AC50 rises from 21 µM to 91 µM (4.3-fold).

Compared with `COCCNC(=O)c1cccc(NS(=O)(=O)c2cc(C)c(Cl)cc2C)c1` [Example 47, 3-((4-chloro-2,5-dimethylphenyl)sulfonamido)-N-(2-methoxyethyl)benzamide], `Cc1cc(S(=O)(=O)Nc2cccc(C(=O)N[C@H](C)c3ccccc3)c2)c(C)cc1Cl` [Example 48, (R)-3-((4-chloro-2,5-dimethylphenyl)sulfonamido)-N-(1-phenylethyl)benzamide] is 3-fold lower in AC50: 39 µM for the first, 13 µM for the second.

`Cc1cc(S(=O)(=O)Nc2ccc(F)c(C(=O)N3CCC[C@H]3C)c2)c(C)cc1Cl` [Example 49, (R)-4-chloro-N-(4-fluoro-3-(2-methylpyrrolidine-1-carbonyl)phenyl)-2,5-dimethylbenzenesulfonamide] and `Cc1cc(S(=O)(=O)Nc2cc(C(=O)N3CCC[C@H]3C)ccc2F)c(C)cc1Cl` [Example 50, (R)-4-chloro-N-(2-fluoro-5-(2-methylpyrrolidine-1-carbonyl)phenyl)-2,5-dimethylbenzenesulfonamide] are within 1.5-fold of each other in AC50: 14 µM for the first, 11 µM for the second.
